This note sets out measurements from patent US20260092071A1, “COMPOUNDS AND COMPOSITIONS AS SMARCA2/4 DEGRADERS AND USES THEREOF” (REGENTS OF THE UNIVERSITY OF MICHIGAN, priority 2022, published 2026).

Usually Dmax stands for the largest share of the target that was removed. As a reminder, the DC50 is the concentration at which degradation of the target reaches its halfway point.

SMILES strings stand for the structures.

The target in this test is SMARCA2 (Homo sapiens, UniProt P51531). Put plainly: HiBiT assay for protein degradation, Hela SMARCA2-HiBiT cells (A series). Format: cell-based. Also on record: Hela cells were genetically modified via CRISPR/Cas9 to fuse HiBiT to the carboxy terminus of SMARCA2; host or cells: HeLa (CRISPR/Cas9 HiBiT knock-in). The following applies: Hela SMARCA2-HiBiT cells, 24 hours treatment; for Dmax: read-out: SMARC A2 Hela HiBit Dmax (%); for DC50: read-out: SMARC A2 Hela HiBit DC50. On the procedure:
Hela cells were genetically modified via CRISPR/Cas9 to fuse HiBiT to the carboxy terminus of SMARCA2 (Promega CS302365) or SMARCA4 (Promega CS3023225). Cells were cultured in DMEM containing 10% FBS and 1% (Vol:Vol) penicillin-streptomycin. […] At the end of experiment, levels of SMARCA2 or SMARCA4 expression were assessed with Nano-Glo® HiBiT Lytic Detection Assay (Promega N3050). IC50 was obtained using the GraphPad Prism data analysis software.

SMARCA2, sequence (P51531 whole entry): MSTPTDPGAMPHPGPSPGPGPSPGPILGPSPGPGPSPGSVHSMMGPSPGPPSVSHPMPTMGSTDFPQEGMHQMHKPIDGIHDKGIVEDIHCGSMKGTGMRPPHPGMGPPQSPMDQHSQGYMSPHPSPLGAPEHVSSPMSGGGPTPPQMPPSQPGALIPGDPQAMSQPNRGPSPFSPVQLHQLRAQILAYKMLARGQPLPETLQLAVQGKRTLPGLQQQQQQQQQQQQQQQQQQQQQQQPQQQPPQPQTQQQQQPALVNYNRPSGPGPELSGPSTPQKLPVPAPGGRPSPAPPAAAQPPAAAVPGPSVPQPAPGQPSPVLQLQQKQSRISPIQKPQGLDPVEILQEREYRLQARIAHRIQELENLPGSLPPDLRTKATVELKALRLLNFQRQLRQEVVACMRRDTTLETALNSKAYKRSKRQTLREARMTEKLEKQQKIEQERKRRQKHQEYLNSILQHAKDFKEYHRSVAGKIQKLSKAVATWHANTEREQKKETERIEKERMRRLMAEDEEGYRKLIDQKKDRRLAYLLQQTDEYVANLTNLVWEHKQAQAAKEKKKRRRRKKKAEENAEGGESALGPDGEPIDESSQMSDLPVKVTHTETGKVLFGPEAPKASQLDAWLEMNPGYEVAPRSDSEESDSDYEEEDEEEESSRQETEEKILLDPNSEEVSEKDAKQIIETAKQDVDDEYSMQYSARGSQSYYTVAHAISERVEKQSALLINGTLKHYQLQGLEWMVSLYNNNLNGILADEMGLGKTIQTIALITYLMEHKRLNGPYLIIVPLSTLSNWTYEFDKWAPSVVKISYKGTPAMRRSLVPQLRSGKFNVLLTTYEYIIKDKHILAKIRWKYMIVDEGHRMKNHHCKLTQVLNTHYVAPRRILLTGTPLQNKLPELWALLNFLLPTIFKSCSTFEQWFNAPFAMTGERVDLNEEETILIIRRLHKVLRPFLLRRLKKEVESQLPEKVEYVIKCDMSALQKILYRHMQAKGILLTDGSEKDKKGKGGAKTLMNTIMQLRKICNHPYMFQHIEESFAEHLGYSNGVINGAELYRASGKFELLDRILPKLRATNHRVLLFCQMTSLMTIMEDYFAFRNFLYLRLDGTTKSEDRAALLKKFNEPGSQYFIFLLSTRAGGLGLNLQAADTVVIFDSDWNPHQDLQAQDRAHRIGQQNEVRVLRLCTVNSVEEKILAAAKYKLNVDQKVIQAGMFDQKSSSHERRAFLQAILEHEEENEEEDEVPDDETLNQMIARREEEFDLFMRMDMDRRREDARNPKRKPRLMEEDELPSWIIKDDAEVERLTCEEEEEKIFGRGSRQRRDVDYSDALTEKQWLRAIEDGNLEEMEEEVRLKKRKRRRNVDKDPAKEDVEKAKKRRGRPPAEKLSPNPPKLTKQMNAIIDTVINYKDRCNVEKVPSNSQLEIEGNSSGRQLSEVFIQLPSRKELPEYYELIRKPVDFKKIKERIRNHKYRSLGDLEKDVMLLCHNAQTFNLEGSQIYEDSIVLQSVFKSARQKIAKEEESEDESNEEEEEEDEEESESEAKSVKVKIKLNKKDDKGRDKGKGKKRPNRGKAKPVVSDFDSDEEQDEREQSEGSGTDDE

Regarding `Cc1ncsc1-c1ccc([C@H](CN2CCOCC2)NC(=O)[C@@H]2C[C@@H](O)CN2C(=O)[C@@H](n2cc([C@H]3CC[C@H](CN4CCC(c5ccc6c(n5)-n5c(nc(=O)c7c(Br)cccc75)C65CCCCC5)CC4)CC3)nn2)C(C)(C)C)cc1` [Compound A52, (2S,4R)-1-((S)-2-(4-((1r,4S)-4-((4-(4′-bromo-5′-oxo-5′H-spiro[cyclohexane-1,7′-pyrido[3′,2′: 4,5]pyrrolo[1,2-a]quinazolin]-10′-yl)piperidin-1-yl)methyl)cyclohexyl)-1H-1,2,3-triazol-1-yl)-3,3-dimethylbutanoyl)-4-hydroxy-N—((R)-1-(4-(4-methylthiazol-5-yl)phenyl)-2-morpholinoethyl)pyrrolidine-2-carboxamide], the Dmax was in the range of 70 to 90% and the 50% degradation concentration (DC50) is < 100 nM.
The corresponding values for `Cc1ncsc1-c1ccc([C@H](CCN2CC(C)(O)C2)NC(=O)[C@@H]2C[C@@H](O)CN2C(=O)[C@@H](n2cc([C@H]3CC[C@H](CN4CCC(c5ccc6c(c5)-n5c(nc(=O)c7c(Cl)cccc75)C65CCCCC5)CC4)CC3)nn2)C(C)(C)C)cc1` [Compound A80, (2S,4R)-1-((S)-2-(4-((1r,4S)-4-((4-(4′-chloro-5′-oxo-5′H-spiro[cyclohexane-1,7′-indolo[1,2-a]quinazolin]-10′-yl)piperidin-1-yl)methyl)cyclohexyl)-1H-1,2,3-triazol-1-yl)-3,3-dimethylbutanoyl)-4-hydroxy-N—((S)-3-(3-hydroxy-3-methylazetidin-1-yl)-1-(4-(4-methylthiazol-5-yl)phenyl)propyl)pyrrolidine-2-carboxamide] are 70 to 90% and 10 to 100 nM.
For the compound `Cc1ncsc1-c1ccc([C@H](CCN2CC(C)(F)C2)NC(=O)[C@@H]2C[C@@H](O)CN2C(=O)[C@@H](n2cc([C@H]3CC[C@H](CN4CCC(c5ccc6c(c5)-n5c(nc(=O)c7c(Cl)cccc75)C65CCCCC5)CC4)CC3)nn2)C(C)(C)C)cc1` [Compound A79, (2S,4R)-1-((S)-2-(4-((1r,4S)-4-((4-(4′-chloro-5′-oxo-5′H-spiro[cyclohexane-1,7′-indolo[1,2-a]quinazolin]-10′-yl)piperidin-1-yl)methyl)cyclohexyl)-1H-1,2,3-triazol-1-yl)-3,3-dimethylbutanoyl)-N—((S)-3-(3-fluoro-3-methylazetidin-1-yl)-1-(4-(4-methylthiazol-5-yl)phenyl)propyl)-4-hydroxypyrrolidine-2-carboxamide], the Dmax fell in the range of 70 to 90% and the DC50 is < 10 nM.
In the case of `Cc1ncsc1-c1ccc([C@H](CN2CCOCC2)NC(=O)[C@@H]2C[C@@H](O)CN2C(=O)[C@@H](n2cc(C3CCN(CC4CCN(c5ccc6c(c5)-n5c(nc(=O)c7c(Br)cccc75)C65CCCCC5)CC4)CC3)nn2)C(C)(C)C)cc1` [Compound A169, (2S,4R)-1-((S)-2-(4-(1-((1-(4′-bromo-5′-oxo-5′H-spiro[cyclohexane-1,7′-indolo[1,2-a]quinazolin]-10′-yl)piperidin-4-yl)methyl)piperidin-4-yl)-1H-1,2,3-triazol-1-yl)-3,3-dimethylbutanoyl)-4-hydroxy-N—((R)-1-(4-(4-methylthiazol-5-yl)phenyl)-2-morpholinoethyl)pyrrolidine-2-carboxamide], the DC50 was > 1000 nM.
Consider `Cc1ncsc1-c1ccc([C@H](CN2CCOCC2)NC(=O)[C@@H]2C[C@@H](O)CN2C(=O)[C@@H](n2cc([C@H]3CC[C@H](CN4CCC(c5ccc6c(n5)-n5c(nc(=O)c7c(Cl)cccc75)C65CCCCC5)CC4)CC3)nn2)C(C)(C)C)cc1` [Compound A77, (2S,4R)-1-((S)-2-(4-((1r,4S)-4-((4-(4′-chloro-5′-oxo-5′H-spiro[cyclohexane-1,7′-pyrido[3′,2′: 4,5]pyrrolo[1,2-a]quinazolin]-10′-yl)piperidin-1-yl)methyl)cyclohexyl)-1H-1,2,3-triazol-1-yl)-3,3-dimethylbutanoyl)-4-hydroxy-N—((R)-1-(4-(4-methylthiazol-5-yl)phenyl)-2-morpholinoethyl)pyrrolidine-2-carboxamide], for which the Dmax lay in the range of 70 to 90% and the DC50 is 10 to 100 nM.
The corresponding values for `Cc1ncsc1-c1ccc([C@H](CCN2CCOCC2)NC(=O)[C@@H]2C[C@@H](O)CN2C(=O)[C@@H](n2cc([C@H]3CC[C@H](CN4CCC(c5ccc6c(c5)-n5c(nc(=O)c7c(Cl)cccc75)C65CCCCC5)CC4)CC3)nn2)C(C)(C)C)cc1` [Compound A81, (2S,4R)-1-((S)-2-(4-((1r,4S)-4-((4-(4′-chloro-5′-oxo-5′H-spiro[cyclohexane-1,7′-indolo[1,2-a]quinazolin]-10′-yl)piperidin-1-yl)methyl)cyclohexyl)-1H-1,2,3-triazol-1-yl)-3,3-dimethylbutanoyl)-4-hydroxy-N—((S)-1-(4-(4-methylthiazol-5-yl)phenyl)-3-morpholinopropyl)pyrrolidine-2-carboxamide] are > 90% and < 10 nM.
The corresponding values for `Cc1ncsc1-c1ccc([C@H](CN2CCOCC2)NC(=O)[C@@H]2C[C@@H](O)CN2C(=O)[C@@H](n2cc([C@H]3CC[C@H](CN4CCC(c5ccc6c(c5)-n5c(nc(=O)c7c(Br)cccc75)C65CCCCC5)CC4)CC3)nn2)C(C)(C)C)cc1` [Compound A69, (2S,4R)-1-((S)-2-(4-((1r,4S)-4-((4-(4′-bromo-5′-oxo-5′H-spiro[cyclohexane-1,7′-indolo[1,2-a]quinazolin]-10′-yl)piperidin-1-yl)methyl)cyclohexyl)-1H-1,2,3-triazol-1-yl)-3,3-dimethylbutanoyl)-4-hydroxy-N—((R)-1-(4-(4-methylthiazol-5-yl)phenyl)-2-morpholinoethyl)pyrrolidine-2-carboxamide] are > 90% and < 100 nM.
The corresponding values for `Cc1ncsc1-c1ccc([C@H](CN2CCOCC2)NC(=O)[C@@H]2C[C@@H](O)CN2C(=O)[C@@H](n2cc(C3CCC(CN4CCC(c5ccc6c(c5)-n5c(nc(=O)c7ccccc75)C65CCCCC5)CC4)CC3)nn2)C(C)(C)C)cc1` (stereo partly drawn) [Compound A170, (2S,4R)-1-((S)-3,3-dimethyl-2-(4-(4-((4-(5′-oxo-5′H-spiro[cyclohexane-1,7′-indolo[1,2-a]quinazolin]-10′-yl)piperidin-1-yl)methyl)cyclohexyl)-1H-1,2,3-triazol-1-yl)butanoyl)-4-hydroxy-N—((R)-1-(4-(4-methylthiazol-5-yl)phenyl)-2-morpholinoethyl)pyrrolidine-2-carboxamide] are < 50% and > 1000 nM.
In the case of `COCCOCCOCC[C@H](NC(=O)[C@@H]1C[C@@H](O)CN1C(=O)[C@@H](n1cc([C@H]2CC[C@H](CN3CCC(c4ccc5c(c4)-n4c(nc(=O)c6c(Cl)cccc64)C54CCCCC4)CC3)CC2)nn1)C(C)(C)C)c1ccc(-c2scnc2C)cc1` [Compound A82, (2S,4R)-1-((S)-2-(4-((1r,4S)-4-((4-(4′-chloro-5′-oxo-5′H-spiro[cyclohexane-1,7′-indolo[1,2-a]quinazolin]-10′-yl)piperidin-1-yl)methyl)cyclohexyl)-1H-1,2,3-triazol-1-yl)-3,3-dimethylbutanoyl)-4-hydroxy-N—((S)-3-(2-(2-methoxyethoxy)ethoxy)-1-(4-(4-methylthiazol-5-yl)phenyl)propyl)pyrrolidine-2-carboxamide], the Dmax is > 90% and the DC50 was < 10 nM.
Consider `Cc1ncsc1-c1ccc([C@H](CN2CCOCC2)NC(=O)[C@@H]2C[C@@H](O)CN2C(=O)[C@@H](n2cc(C3CCN(CC4CCN(c5ccc6c(c5)-n5c(nc(=O)c7c(Cl)cccc75)C65CCCCC5)CC4)CC3)nn2)C(C)(C)C)cc1` [Compound A168, (2S,4R)-1-((S)-2-(4-(1-((1-(4′-chloro-5′-oxo-5′H-spiro[cyclohexane-1,7′-indolo[1,2-a]quinazolin]-10′-yl)piperidin-4-yl)methyl)piperidin-4-yl)-1H-1,2,3-triazol-1-yl)-3,3-dimethylbutanoyl)-4-hydroxy-N—((R)-1-(4-(4-methylthiazol-5-yl)phenyl)-2-morpholinoethyl)pyrrolidine-2-carboxamide], for which the Dmax is < 50% and the half-maximal degradation concentration (DC50) was > 1000 nM.
